Experimental data as given in patent publication EP1724268A1, “COMPOUND HAVING TGF-BETA INHIBITORY ACTIVITY AND PHARMACEUTICAL COMPOSITION CONTAINING SAME” (KIRIN BEER KABUSHIKI KAISHA, priority 2004, dated 2005).
Read-outs that look alike come from different tables or passages of the source. Marks after values point to notes of the source that are not given here.

Key:
[1] = tested on: rat unilateral ureteral obstruction (UUO) model; assay: Anti-fibrotic activity, rat unilateral ureteral obstruction (UUO) model (Test Example 5); assay type: in vivo, SD rats; conditions: UUO treatment, left kidney, corrected by total protein of kidney extract, average of 6 rats ± standard deviation
Protocol: The anti-fibrotic activity of the compounds described in the present specification was evaluated using a rat unilateral ureteral obstruction (UUO) model which is a renal fibrosis model. Compound 50 and compound 159 were used as the test compound. Six week-old male SD rats (available from Charles River Japan, Inc.) were purchased and were pre-raised before use in experiments. Regarding diets and drinking water, pellets CE-2 (available from CLEA JAPAN INC.) and sterile tap water were freely fed. The rats underwent laparotomy under pentobarbital anesthesia, and the left renal urinary duct was ligated. Thereafter, the […] underwent suturing operation and were divided into a vehicle administration group (n = 6) and a test compound administration group (n = 6) using the weight as an index. The test compound was mixed in amounts of 0.03% and 0.1% in powder diet CE-2 (available from CLEA JAPAN INC.), and the mixtures were fed as a diet to each rat group from the first day of the ureteral obstruction.
After administration of the mixed feed for 7 days, the left kidney was removed, and the hydroxyproline content as an index of organ fibrosis was measured by the following method. Specifically, renal pieces were first placed in 6 N HCl, were homogenized, and were then heated on a heat block at 130°C for 3 hr to hydrolyze protein. Thereafter, the suspension of renal pieces was neutralized by the addition of an appropriate amount of 4 N NaOH. The neutralized suspension was centrifuged (1000 rpm, 5 min, room temperature) to obtain the supernatant as a kidney extract. A chloramine T liquid, a perchloric acid solution (a solution prepared by adding distilled water to 31.5 ml of 60% perchloric acid to adjust the total volume to 100 ml), and a p-dimethylaminobenzaldehyde solution (a solution prepared by adding […] to 20 g of p-dimethylaminobenzaldehyde to adjust the total volume to 100 ml) were added to the kidney extract, and a reaction was allowed to proceed at 60°C for 20 min. The absorbance at 557 nm was then measured. The content of hydroxyproline was determined from the measured data based on a calibration curve for hydroxyproline prepared using control. Further, the content of hydroxyproline thus determined was corrected according to the total protein content of the kidney extract.
The values in the tables are average of data on 6 rats for each group ± standard deviation.

TGFβ signal = TGFβ signal inhibitory activity, (SBE)4-Luc reporter in A549 cells (Test Examples 1A and 1B); assay type: cell-based, human; conditions: Homo sapiens, A549, read-out: TGFβ inhibition rate, %
How it was run: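 Compounds at 3 µM and 10 µM (some 1 µM) were added with 2 ng/ml TGFβ-1 to A549 cells stably expressing an SBE-driven luciferase, then cultured 4 hr. Chemiluminescent luciferase signal gave % inhibition versus TGFβ-alone and no-TGFβ controls.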

[2] = tested on: mouse unilateral ureteral obstruction (UUO) model; assay: Anti-fibrotic activity, mouse UUO model, mixed feed for 10 days (Test Example 3); assay type: in vivo; conditions: UUO treatment, kidney, average of five mice ± standard deviation
Protocol: The anti-fibrotic activity of the compounds related to the present invention was evaluated using a mouse unilateral ureteral obstruction (UUO) model which is a renal fibrosis model. Compound r384 produced in the working example was used as the test compound. Seven week-old male BALB/c mice (available from Charles River Japan, Inc.) were purchased and were pre-raised before use in experiments. Regarding diets and drinking water, pellets CE-2 (available from CLEA JAPAN INC.) and sterile tap water were freely fed. The mice underwent laparotomy under pentobarbital anesthesia, and the left renal urinary duct was ligated. […] After administration for 4 days, the mouse left kidney was removed, and the hydroxyproline content as an index of organ fibrosis was measured by the following method. […] The absorbance at 557 nm was then measured. The content of hydroxyproline was determined from the measured data based on a calibration curve for hydroxyproline prepared using control. Further, the content of hydroxyproline thus determined was corrected according to the weight of the homogenized kidney. The anti-fibrotic activity of a compound related to the present invention was evaluated using the same model as used in Test Example 2. […]

[3] = tested on: mouse unilateral ureteral obstruction (UUO) model; assay: Anti-fibrotic activity, mouse unilateral ureteral obstruction (UUO) model, oral administration (Test Example 2); assay type: in vivo, BALB/c mice; conditions: UUO treatment, left kidney, average of 7 mice ± standard deviation
Protocol: The anti-fibrotic activity of the compounds related to the present invention was evaluated using a mouse unilateral ureteral obstruction (UUO) model which is a renal fibrosis model. Compound r384 produced in the working example was used as the test compound. Seven week-old male BALB/c mice (available from Charles River Japan, Inc.) were purchased and were pre-raised before use in experiments. Regarding diets and drinking water, pellets CE-2 (available from CLEA JAPAN INC.) and sterile tap water were freely fed. The mice underwent laparotomy under pentobarbital anesthesia, and the left renal urinary duct was ligated. Thereafter, the mice underwent suturing operation and were divided into a vehicle administration group (n = 7) and a test compound administration group (n = 7) using the weight as an index. The test compound was weighed, and then one drop of 1 N HCl was added to the test compound to prepare a solution. The solution was then suspended in 0.5% carboxymethylcellulose (solvent). The suspension was forcibly orally administered twice a day with an oral sonde from the day of urinary duct ligation (5, 15, or 50 mg/kg). The solvent was administered to the vehicle administration group in the same manner as described just above.
After administration for 4 days, the mouse left kidney was removed, and the hydroxyproline content as an index of organ fibrosis was measured by the following method. Renal pieces were first placed in 6 N HCl, were homogenized, and were then heated on a heat block at 130°C for 3 hr to hydrolyze protein. Thereafter, the suspension of renal pieces was neutralized by the addition of an appropriate amount of 4 N NaOH. The neutralized suspension was centrifuged (1000 rpm, 5 min, room temperature) to obtain the supernatant as a kidney extract. […] The absorbance at 557 nm was then measured. The content of hydroxyproline was determined from the measured data based on a calibration curve for hydroxyproline prepared using control. Further, the content of hydroxyproline thus determined was corrected according to the weight of the homogenized kidney. […]

[4] = tested on: mouse DMN hepatic fibrosis model; assay: Anti-fibrotic activity, mouse DMN hepatic fibrosis model (Test Example 4); assay type: in vivo, BALB/c mice; conditions: DMN administration, 21 days, average of 6 mice ± standard deviation
Protocol: The anti-fibrotic activity of a compound related to the present invention was evaluated using a mouse DMN hepatic fibrosis model as a liver fibrosis model. Compound r384 prepared in the working example was used as the test compound. Six-week-old male BALB/c mice (available from Charles River Japan, Inc.) were purchased and were pre-raised before use in experiments. The mice were divided into a vehicle administration group (n = 6) and a test compound administration group ([…]) using the weight as an index. Thereafter, dimethylnitrosoamine (DMN) diluted with physiological saline was intraperitoneally administered at 15 mg/kg three times per week for 3 weeks to induce hepatic fibrosis. The administration of the test compound was carried out from the first day of the DMN administration. The test compound was mixed at the dosage of 0.015, 0.03, and 0.06% in powder diet CE-2 (available from CLEA JAPAN INC.), and the mixtures were fed as a diet to each mouse group. After 21 days, the mice underwent laparotomy under ether anesthesia, and blood was collected from the heart, followed by measurement of the level of hyaluronic acid in blood as an index of hepatic fibrosis using a hyaluronic acid plate (Chugai Pharmaceutical Co., Ltd.).
The values in the table are average of data on 6 mice for each group ± standard deviation.

[5] = test compound 3 µM, TGFβ-1 2 ng/ml, 4 hr, Table 1A
[6] = test compound 10 µM, TGFβ-1 2 ng/ml, 4 hr, Table 1A
[7] = 3 µM, compounds of Reference Examples (Test Example 1B)
[8] = 10 µM, compounds of Reference Examples (Test Example 1B)

Compound: CCc1ccc(Oc2ccnc3cc(OC)c(OC)cc23)c(-c2ncccn2)n1 [Compound 50, 4-(6-Ethyl-2-pyrimidin-2-yl-pyridin-3-yloxy)-6,7-dimethoxy-quinoline]
- Hydroxyproline content ([1]; 0.03% mixed feed for 7 days, Table 5a): 7.33 ± 0.67 mg/g
- Hydroxyproline content ([1]; 0.1% mixed feed for 7 days, Table 5a): 4.67 ± 0.22 mg/g
- inhibition at 3 µM (TGFβ signal; [5]): 98%
- inhibition at 10 µM (TGFβ signal; [6]): 100%

Compound: CCc1ccc(Oc2ccnc3cc(OC)c(F)cc23)c(-c2ncccn2)n1 [Compound 159, 4-(6-Ethyl-2-pyrimidin-2-yl-pyridin-3-yloxy)-6-fluoro-7-methoxy-quinoline]
- Hydroxyproline content ([1]; 0.03% mixed feed for 7 days, Table 5b): 22.47 ± 0.82 mg/g
- Hydroxyproline content ([1]; 0.1% mixed feed for 7 days, Table 5b): 17.28 ± 0.87 mg/g
- inhibition at 3 µM (TGFβ signal; [5]): 99%
- inhibition at 10 µM (TGFβ signal; [6]): 100%

Compound: COc1cc2c(Oc3cc(C)c(C)cc3C(C)=O)ccnc2cc1OCCCN1CCOCC1.Cl [Compound r320, 1-{2-[6-Methoxy-7-(3-morpholin-4-yl-propoxy)-quinolin-4-yloxy]-4,5-dimethyl-phenyl}-ethanone hydrochloride]
- Hydroxyproline content (mg/g protein) ([2]; 0.1% mixed feed for 10 days): 9.44 ± 0.53 mg/g protein
- Hydroxyproline content (mg/g protein) ([2]; 0.3% mixed feed for 10 days): 9.19 ± 0.38 mg/g protein
- inhibition at 3 µM (TGFβ signal; [7]): 100%
- inhibition at 10 µM (TGFβ signal; [8]): 100%

Compound: COc1cc2c(Oc3cc4ccccc4nc3C)ccnc2cc1OCC(O)CO (stereo not shown) [Compound r384, 3-[6-Methoxy-4-(2-metharl-quinolin-3-yloxy)-quinolin-7-yloxy]-propane-1,2-diol]
- Hydroxyproline content ([3]; 5 mg/kg orally twice a day for 4 days): 514 ± 20.8 µg/g
- Hydroxyproline content ([3]; 15 mg/kg orally twice a day for 4 days): 488 ± 10.9 µg/g
- Hydroxyproline content ([3]; 50 mg/kg orally twice a day for 4 days): 426 ± 14.2 µg/g
- inhibition at 3 µM (TGFβ signal; [7]): 100%
- inhibition at 10 µM (TGFβ signal; [8]): 100%
- Blood hyaluronic acid content ([4]; 0.015% mixed feed): 167.8 ± 25.0 ng/mL
- Blood hyaluronic acid content (ng/ml) ([4]; 0.06% mixed feed): 97.2 + 11.0** ng/ml
